Results reported in patent US20240376098A1, “METHODS OF TREATMENT USING BCN057, BCN077 AND ANALOGS” (BCN Biosciences L.L.C., priority 2021, published 2024).

How the values were obtained:
Format in all cases: cell-based, human
[1] = tested on: PDL-1 expression on Panc-1 cells; experiment: Western blot of PDL-1 on Panc-1 cells co-cultured with T-lymphocytes; conditions: co-culture, 2.5, 5, 7.5 and 10 hrs
Experimental: Cell lines and cell culture: Panc-1 cells were cultured in DMEM medium supplemented with 10% Fetal Bovine Serum and maintained at 37° C.5% CO2. Human Peripheral Blood Pan-T Cells were cultured in serum free T cells expansion media with 10 ng/ml of rhIL-2, T-cell activator and expanded as per the manufacturer instructions. Panc-1 cells and T-Cells were grown and expanded separately in T75 flasks. For co-culture experiments with Panc-1 cell, 2.5 million T-cells per well were plated in the well using a 6 well plate. 2.5 million Panc-1 Cells were plated in the thinsert which was placed into the well of the 6 well plate in order to have the cells physically separated but share media. The cells were incubated for 24 hours at 37° C., 5% CO2. At 24 hours the media was replaced with media containing vehicle, or 10 uM BCN057 and were incubated for the following timepoints: 1 hr, 6 hr, 12 hr, 24 hrs. The Panc-1 cells were removed by gently scraping the cells from the thinsert.
Western Blot: Cells were harvested and lysed in cell lysis buffer on ice for 15 minutes and the lysate was centrifuged at 13,000 rpm at 4° C. for 10 minutes. The supernatant was transferred into a new tube for BCA protein quantification assay (Thermo Fisher Scientific) and the samples were normalized. 3× loading buffer (Cell Signaling) was added the protein sample and boiled for 5 minutes. […]

Panc-1 cells = experiment: ATPLite luminescence viability assay on Panc-1 cells
Experimental: Viability Assay. To determine the effects of BCN 057 in comparison and combination with irinotecan, Oxaloplatin and 5Fu, the ATPLite Luminescence Assay System was used according to manufacturer's instructions. On day 1, 3,000 Panc-1 cells per well were seeded in 96-well white, opaque sterile tissue culture treated microplates and incubated for 24 hours in complete medium at 37° C., 5% CO2. On day 2, the media was exchanged with media containing various combinations of 10 uM BCN 057, 25 μM 5-Fu, 75 μM Oxaloplatin, and 50 μM Irinotecan and incubated at 37° C., 5% CO2. On day 3,4, and 5, the ATP Lite Assay was performed according to manufacturer's instructions for the 24, 48, and 72 hr timepoints. Unless otherwise stated, values were represented as a percent of the control which is the vehicle for each drug. No difference was found in viability between any control vehicle.
Statistics. The results are shown by calculating the averages (±Standard deviation) in comparison to untreated controls with the indicated (n). The Percent Viability was calculated by dividing the average of each condition by the average of the untreated control (vehicle). Statistical analysis was performed in excel.
The first example entailed studying the effect of BCN057 in pancreatic cancer cells. Panc-1 cells, a G12D KRAS mutant cell line was treated with BCN057 for 48 hours.
All data points are n=5. Control (ND) received no drug and BCN057 at 2, 5, 10, and 20 μM final concentration. The Percent viability was calculated by dividing the average value for each condition by the average value of the control cells (V) at each time point.
Further, these doses span the concentrations found in plasma during efficacy studies in rodents. Subsequently, microscope images appeared to show cell blebbing and fragmentation shortly after application of BCN057 indicating possible apoptosis. […] Blebbing and cell fragmentation was noted within 20 min of incubation with drug (as shown with the arrows). Cell fragmentation was seen between 20-30 minutes after exposure to the drug.
The anti-apoptotic phenotype of KRAS is associated with significant resistance to chemotherapy. Thus, to examine whether BCN057 enhances cytotoxic chemotherapeutic agents such as 5-Fluorouracil, also known as 5FU, Panc1 cells were pre-treated with 5FU as reported and incubated with BCN057. […] The effect followed a dose dependent response for BCN057 and was consistent over 24, 48 and 72 hrs after BN057 treatment (24 and 48 hrs not shown).
All data points are n=5. Control (ND) received no drugs. Study groups include 5FU (50 μM), 057 (BCN057 at 2, 5, 10, and 20 μM or 5FU+BCN057 (BCN057 at 2, 5, 10, and 20 μM in combination with 5FU at 50 μM). The Percent viability was calculated by dividing the average value for each condition by the average value of the control cells (V) with standard deviation at each time point
Combined chemotherapy and cytotoxicity: Other cytotoxic drugs commonly used in the treatment of pancreatic or colorectal cancer were then examined in similar fashion such as those within FOLFIRINOX such as 5FU, Irinotecan and Oxaliplatin in combination equivalent doses of BCN057 over 24, 48 and 72 hours.
FIG. 6 is a histogram showing the cytotoxicity of Oxaliplatin and Irinotecan, individually or in combination with 5FU and BCN057 on Panc-1 cells. Cells were incubated with Oxaliplatin, Irinotecan and 5FU with concentrations at 10 μM each and BCN057 (057) also at 10 μM with n=4 for all assays.

[2] = tested on: Bax, BCl-2, Akt-1 and Caspase-3 in Panc-1 cells; experiment: qPCR of pro apoptosis and anti-apoptosis markers; conditions: 1-hour post treatment
Excerpt: FIG. 2C is a histogram of the results of qPCR analysis of pro apoptosis and anti-apoptosis markers in Panc-1 cells.

SMILES: COc1ccc2cc(-c3nc4ccc(C)cn4c3NCc3ccco3)c(=O)[nH]c2c1 [BCN057, 3-[(Furan-2-ylmethyl)-amino]-2-(7-methoxy-2-oxo-1,2-dihydro-quinolin-3-yl)-6-methyl-imidazo[1,2-a]pyridin-1-ium]
- PDL-1 expression on Panc-1 cells [1]: not appreciably changed
- Panc1 cells viability (Panc-1 cells; 48 hours, increasing doses of BCN057): significant decrease in Panc1 cells viability
- IC50 (Panc-1 cells; Homo sapiens, Panc-1, 72 hours post application, 2, 5, 10, 20 μM, Quest Graph IC50 Calculator): 1.33 µM
- Cytotoxicity of combination of 5FU and BCN057 (Panc-1 cells; Panc1, 5FU 50 μM plus BCN057 2-20 μM, 24, 48 and 72 hrs): greater cytotoxicity than 5FU alone
- Tumor viability on addition of BCN057 to Oxaliplatin, Irinotecan and 5FU (Panc-1 cells; Panc-1, 10 μM each, over 72 hrs): general trend of decreasing tumor viability
- cytotoxicity toward the cells in the dose response curve (Panc-1 cells; Panc-1, 2-20 μM): potent cytotoxicity toward the cells at all concentrations
- Sensitivity to cytotoxic effect of 5FU, Irinotecan and Oxaliplatin in combination with BCN057 (Panc-1 cells; Panc-1, 24, 48 and 72 hours, all time points except Irinotecan and oxaliplatin at 72 hours): statistically significant sensitivity
- Akt-1 expression [2]: did not affect
- Bax gene expression [2]: induces expression
- Bcl2 gene expression [2]: inhibited
- Caspase-3 expression [2]: did not affect
